In ChEMBL document CHEMBL1158953, “The Structure of Clathrodin, a Novel Alkaloid Isolated from the Caribbean Sea Sponge Agelas clathrodes” (1991):
Converted amounts (≈) assume the structure as drawn. The source made the active and inactive calls. The rule behind the calls is not given here.

How the values were obtained:
Rana temporaria = species: Rana temporaria; experiment: Inhibition of cholinergic receptor in frog skeletal muscle at 0.1 uM to 1000 uM
CHO-K1 = experiment: Cytotoxicity against CHOK1 cells; assay type: functional; conditions: Cricetulus griseus, read-out: ED50 (the source's name)

Activity (Rana temporaria): Active
SMILES: Nc1ncc(/C=C/CNC(=O)c2ccc[nH]2)[nH]1 [CLATHRODIN]
EC50 (CHO-K1): 1.33 µg/mL (≈ 5.75 µM)
